From patent US9675627B2, “Dosing regimens for treating and/or preventing cerebral amyloidoses” (Amicus Therapeutics, Inc., priority 2014, dated 2017)

Columns and labels:
β-hex [1] = molecular target: T1, β-hex (Mus musculus, UniProt P20060); experiment: Proof-of-concept study: brain β-hex levels; type: in vivo, Dutch APP^E693Q transgenic mice; details: 3-month course, dose-dependent
T1 construct: from tissue; host or cells: brain of Dutch APP E693Q transgenic mice
T1 sequence (P20060 32-536): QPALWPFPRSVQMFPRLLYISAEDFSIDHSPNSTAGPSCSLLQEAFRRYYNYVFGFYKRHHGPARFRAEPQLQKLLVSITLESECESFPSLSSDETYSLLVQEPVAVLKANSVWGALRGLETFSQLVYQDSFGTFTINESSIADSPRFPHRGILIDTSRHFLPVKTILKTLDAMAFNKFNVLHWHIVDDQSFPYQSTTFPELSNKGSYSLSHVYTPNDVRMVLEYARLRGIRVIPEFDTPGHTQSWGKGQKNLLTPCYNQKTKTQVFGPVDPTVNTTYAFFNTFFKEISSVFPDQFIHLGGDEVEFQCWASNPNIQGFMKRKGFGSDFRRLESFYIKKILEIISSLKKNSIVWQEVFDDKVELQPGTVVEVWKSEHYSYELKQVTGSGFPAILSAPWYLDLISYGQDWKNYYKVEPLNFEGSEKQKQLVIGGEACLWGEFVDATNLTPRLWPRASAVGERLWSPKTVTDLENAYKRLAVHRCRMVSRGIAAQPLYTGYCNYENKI
Description: (§1) The generation and characterization of Dutch APPE693Q mice transgenic mice is described in Gandy, S., et al. Days to criterion as an indicator of toxicity associated with human Alzheimer amyloid-beta oligomers. Annals of neurology 68, 220-230 (2010). 3-month-old male Dutch APP^E693Q mice transgenic mice were orally gavaged 5 days/week with either vehicle (water) (n=15) or 3, 10, 30 or 100 mg/kg AdDNJ for 3 months (n=13). All animal studies were approved and conducted in accordance with the Institutional Animal Care and Usage Committee. Mice were kept in a pathogen-free environment, on a 12-hour light/dark cycle and given ad libitum access to food and water. At 6 month of age treatment groups, and a 3-month-old untreated baseline group (n=15), were cognitively assessed in the NOR, EPM and FC tests. 48 hours following the final dose mice were perfused with ice-cold 1×PBS. The brain was removed and dissected into two hemispheres. One half was snap-frozen on dry ice and stored at −80° C. for biochemistry; the other half was post-fixed in 4% paraformaldehyde then sagittally sectioned on a vibratome into 30 μm sections and stored at 4° C. in storage buffer until histological analyses.

β-hex [2] = experiment: Proof-of-concept study: brain β-hex levels; type: in vivo, Dutch APP^E693Q transgenic mice; details: 3-month course
Description: as §1

β-galactosidase (β-Gal) = molecular target: T2, β-galactosidase (β-Gal) (Homo sapiens, UniProt P16278); experiment: Selectivity: beta-galactosidase activity in fibroblast lysate; type: biochemical; details: 10 μM, the highest concentration tested
T2 construct: wild-type fibroblast (CRL2076) pellets (˜2.5e6 cells/pellet) were lysed; host or cells: wild-type fibroblasts CRL2076, lysate
T2 sequence (P16278 29-677): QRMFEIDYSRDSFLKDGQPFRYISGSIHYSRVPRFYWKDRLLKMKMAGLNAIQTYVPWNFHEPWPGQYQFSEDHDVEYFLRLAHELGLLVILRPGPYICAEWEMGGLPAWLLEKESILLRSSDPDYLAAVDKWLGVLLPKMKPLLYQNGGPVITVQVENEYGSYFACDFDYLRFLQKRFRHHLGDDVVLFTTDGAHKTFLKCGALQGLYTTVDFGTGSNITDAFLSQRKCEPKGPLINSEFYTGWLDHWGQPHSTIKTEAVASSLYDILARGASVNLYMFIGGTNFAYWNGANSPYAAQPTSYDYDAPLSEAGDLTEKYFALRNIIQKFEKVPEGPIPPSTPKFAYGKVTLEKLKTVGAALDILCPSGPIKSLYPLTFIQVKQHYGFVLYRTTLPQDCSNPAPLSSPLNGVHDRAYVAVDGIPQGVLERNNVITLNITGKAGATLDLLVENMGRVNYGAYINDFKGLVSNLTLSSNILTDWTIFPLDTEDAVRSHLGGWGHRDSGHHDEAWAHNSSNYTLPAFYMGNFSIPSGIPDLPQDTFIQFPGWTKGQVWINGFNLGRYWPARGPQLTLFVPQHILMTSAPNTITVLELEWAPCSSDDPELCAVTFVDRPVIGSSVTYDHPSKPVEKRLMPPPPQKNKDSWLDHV
From the text: Enzymatic activity measurements were done in duplicate.

CC(=O)NC1CNC(CO)[C@@H](O)C1O (stereo partly shown) [AdDNJ, 2-acetamido-1,2-dideoxynojirimycin]
brain β-hex B level (β-hex [1]): increased
increase in total brain β-hex (β-hex [2]; 3-100 mg/kg oral 5 days/week, at the highest dose): up to 3 fold
brain β-hex A&S level (β-hex [2]; dose-dependent): increased
inhibition of β-galactosidase (β-Gal) (β-galactosidase (β-Gal)): did not inhibit
